Data taken from PubChem BioAssay AID1963825 (Molecular Pharmacology Branch, DTP, NCI, 2024).

Assay: Anticancer human tumor 997537-175-T-J1-PDC patient-derived colon adenocarcinoma cell line growth inhibition [POLQ]
Conditions: 997537-175-T-J1-PDC complex spheroid viability, combination with POLQ inhibitors; for IC50: curve of first compound; for viability, T/C: stronger effect = lower value
How it was run: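 Patient-derived tumour cells were co-cultured with HUVEC and mesenchymal stem cells as multicellular spheroids at 37 °C. They were treated with POLQ inhibitors (novobiocin, ART-558, RP6685) alone or combined with other agents. Top concentrations were at or near clinical Cmax (otherwise 10 microM; SN-38 at 1 microM), decreasing in half-log steps.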

[1] = second compound 0.0316 µM, first compound 0.0316 µM
[2] = second compound 0.0316 µM, first compound 0.1 µM
[3] = second compound 0.1 µM, first compound 0.0316 µM
[4] = second compound 0.1 µM, first compound 0.1 µM
[5] = second compound 0.316 µM, first compound 0.0316 µM
[6] = second compound 0.316 µM, first compound 0.1 µM
[7] = second compound 1 µM, first compound 0.0316 µM
[8] = second compound 1 µM, first compound 0.1 µM
[9] = second compound 3.16 µM, first compound 0.0316 µM
[10] = second compound 3.16 µM, first compound 0.1 µM
[11] = second compound 10 µM, first compound 0.0316 µM
[12] = second compound 10 µM, first compound 0.1 µM
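Note: luminescence signal used as a surrogate for viable cells; spheroids exposed to drugs for seven days before readout.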

`CC[C@@]1(O)C(=O)OCc2c1cc1n(c2=O)Cc2cc3c(CN(C)C)c(O)ccc3nc2-1` + COC1C(OC(N)=O)C(O)C(Oc2ccc3c(O)c(NC(=O)c4ccc(O)c(CC=C(C)C)c4)c(=O)oc3c2C)OC1(C)C showed an IC50 (second compound 0.0316 µM) greater than 0.1 µM, an IC50 (second compound 0.1 µM) greater than 0.1 µM and an IC50 (second compound 0.316 µM) greater than 0.1 µM. The IC50 (second compound 1 µM) was greater than 0.1 µM, the IC50 (second compound 3.16 µM) was greater than 0.1 µM and the IC50 (second compound 10 µM) was greater than 0.1 µM. For the same compound, the viability, T/C (second compound 0.0316 µM, first compound 0.000316 µM) was 102%, the viability, T/C (second compound 0.0316 µM, first compound 0.001 µM) was 104% and the viability, T/C (second compound 0.0316 µM, first compound 0.00316 µM) was 110%. For the same compound, the viability, T/C (second compound 0.0316 µM, first compound 0.01 µM) was 103%, the viability, T/C [1] was 90.8% and the viability, T/C [2] was 77.6%. For the same compound, the viability, T/C (second compound 0.1 µM, first compound 0.000316 µM) was 111%, the viability, T/C (second compound 0.1 µM, first compound 0.001 µM) was 101% and the viability, T/C (second compound 0.1 µM, first compound 0.00316 µM) was 111%. It also gave a viability, T/C (second compound 0.1 µM, first compound 0.01 µM) of 103%, a viability, T/C [3] of 97.2% and a viability, T/C [4] of 68.6%. For the same compound, the viability, T/C (second compound 0.316 µM, first compound 0.000316 µM) was 96.2%, the viability, T/C (second compound 0.316 µM, first compound 0.001 µM) was 95% and the viability, T/C (second compound 0.316 µM, first compound 0.00316 µM) was 116%. The viability, T/C (second compound 0.316 µM, first compound 0.01 µM) was 102%, the viability, T/C [5] was 105% and the viability, T/C [6] was 58.4%. The viability, T/C (second compound 1 µM, first compound 0.000316 µM) was 90.8%, the viability, T/C (second compound 1 µM, first compound 0.001 µM) was 92.3% and the viability, T/C (second compound 1 µM, first compound 0.00316 µM) was 99.6%. For the same compound, the viability, T/C (second compound 1 µM, first compound 0.01 µM) was 96.3%, the viability, T/C [7] was 86% and the viability, T/C [8] was 76.8%. It also gave a viability, T/C (second compound 3.16 µM, first compound 0.000316 µM) of 101%, a viability, T/C (second compound 3.16 µM, first compound 0.001 µM) of 110% and a viability, T/C (second compound 3.16 µM, first compound 0.00316 µM) of 107%. It also gave a viability, T/C (second compound 3.16 µM, first compound 0.01 µM) of 92.6%, a viability, T/C [9] of 81.7% and a viability, T/C [10] of 55.6%. It also gave a viability, T/C (second compound 10 µM, first compound 0.000316 µM) of 105%, a viability, T/C (second compound 10 µM, first compound 0.001 µM) of 105% and a viability, T/C (second compound 10 µM, first compound 0.00316 µM) of 107%. The viability, T/C (second compound 10 µM, first compound 0.01 µM) was 98.5%, the viability, T/C [11] was 98.2% and the viability, T/C [12] was 70.2%.

Work on `COc1cc(C2c3cc4c(cc3C(OC3OC5COC(C)OC5C(O)C3O)C3COC(=O)C23)OCO4)cc(OC)c1O` (centres undefined) + COC1C(OC(N)=O)C(O)C(Oc2ccc3c(O)c(NC(=O)c4ccc(O)c(CC=C(C)C)c4)c(=O)oc3c2C)OC1(C)C yielded an IC50 (second compound 0.0316 µM) greater than 10 µM, an IC50 (second compound 0.1 µM) greater than 10 µM and an IC50 (second compound 0.316 µM) greater than 10 µM. For the same compound, the IC50 (second compound 1 µM) was greater than 10 µM, the IC50 (second compound 3.16 µM) was greater than 10 µM and the IC50 (second compound 10 µM) was greater than 10 µM. For the same compound, the viability, T/C [1] was 99.8%, the viability, T/C [2] was 95% and the viability, T/C (second compound 0.0316 µM, first compound 0.316 µM) was 93.1%. It also gave a viability, T/C (second compound 0.0316 µM, first compound 1 µM) of 89.9%, a viability, T/C (second compound 0.0316 µM, first compound 3.16 µM) of 74.7% and a viability, T/C (second compound 0.0316 µM, first compound 10 µM) of 67.3%. It also gave a viability, T/C [3] of 103%, a viability, T/C [4] of 114% and a viability, T/C (second compound 0.1 µM, first compound 0.316 µM) of 99.3%. For the same compound, the viability, T/C (second compound 0.1 µM, first compound 1 µM) was 93.7%, the viability, T/C (second compound 0.1 µM, first compound 3.16 µM) was 60.2% and the viability, T/C (second compound 0.1 µM, first compound 10 µM) was 88.5%. It also gave a viability, T/C [5] of 97.3%, a viability, T/C [6] of 107% and a viability, T/C (second compound 0.316 µM, first compound 0.316 µM) of 99.2%. The viability, T/C (second compound 0.316 µM, first compound 1 µM) was 108%, the viability, T/C (second compound 0.316 µM, first compound 3.16 µM) was 92.3% and the viability, T/C (second compound 0.316 µM, first compound 10 µM) was 53.3%. The viability, T/C [7] was 93.5%, the viability, T/C [8] was 105% and the viability, T/C (second compound 1 µM, first compound 0.316 µM) was 110%. For the same compound, the viability, T/C (second compound 1 µM, first compound 1 µM) was 83.9%, the viability, T/C (second compound 1 µM, first compound 3.16 µM) was 88.8% and the viability, T/C (second compound 1 µM, first compound 10 µM) was 55.5%. For the same compound, the viability, T/C [9] was 109%, the viability, T/C [10] was 107% and the viability, T/C (second compound 3.16 µM, first compound 0.316 µM) was 87.7%. It also gave a viability, T/C (second compound 3.16 µM, first compound 1 µM) of 104%, a viability, T/C (second compound 3.16 µM, first compound 3.16 µM) of 63.5% and a viability, T/C (second compound 3.16 µM, first compound 10 µM) of 67.8%. The viability, T/C [11] was 106%, the viability, T/C [12] was 107% and the viability, T/C (second compound 10 µM, first compound 0.316 µM) was 108%. The viability, T/C (second compound 10 µM, first compound 1 µM) was 100%, the viability, T/C (second compound 10 µM, first compound 3.16 µM) was 84.9% and the viability, T/C (second compound 10 µM, first compound 10 µM) was 66.1%.
